Assay results published in patent US20050197350A1, “Novel quinoline, tetrahydroquinazoline, and pyrimidine derivatives and methods of treatment related to the use thereof” (TAISHO PHARMACEUTICAL CO., LTD., priority 2003, published 2005).

The compounds below were run on MCH receptors (assay: MCH receptor activity class (method not given)). Conditions: class by percent of control at 10^-7 M or IC50.
For `Cc1cc(C(=O)NC[C@H]2CC[C@@H](Nc3nc4c(c(N(C)C)n3)CCCC4)CC2)ccc1Br` [compound 619], the class was 3 (Class 3 The value of percent of control at 10^−7 M was more than 60% or the value of IC50 was more than 200 nM.).
For `CN(C)c1nc(N[C@H]2CC[C@@H](CNC(=O)c3cccc(I)c3)CC2)nc2c1CCCC2` [compound 620], the class was 3 (Class 3 The value of percent of control at 10^−7 M was more than 60% or the value of IC50 was more than 200 nM.).
`CN(C)c1nc(N[C@H]2CC[C@@H](CNC(=O)c3cccc(Cl)c3F)CC2)nc2c1CCCC2` [compound 621] was tested, and the class was 3 (Class 3 The value of percent of control at 10^−7 M was more than 60% or the value of IC50 was more than 200 nM.).
For `Cc1ccc(C(=O)NC[C@H]2CC[C@@H](Nc3nc4c(c(N(C)C)n3)CCCC4)CC2)c(F)c1F` [compound 622], the class was 3 (Class 3 The value of percent of control at 10^−7 M was more than 60% or the value of IC50 was more than 200 nM.).
In the case of `CN(C)c1nc(N[C@H]2CC[C@@H](CNC(=O)c3ccc(F)cc3Cl)CC2)nc2c1CCCC2` [compound 623], the class is reported as 3 (Class 3 The value of percent of control at 10^−7 M was more than 60% or the value of IC50 was more than 200 nM.).
`CN(C)c1nc(N[C@H]2CC[C@@H](CNC(=O)c3ccc(F)c(Cl)c3F)CC2)nc2c1CCCC2` [compound 624] was tested, and the class was 3 (Class 3 The value of percent of control at 10^−7 M was more than 60% or the value of IC50 was more than 200 nM.).
`CN(C)c1nc(N[C@H]2CC[C@@H](CNC(=O)CSc3ccccc3)CC2)nc2c1CCCC2` [compound 625] was tested, and the class was 3 (Class 3 The value of percent of control at 10^−7 M was more than 60% or the value of IC50 was more than 200 nM.).
For `CN(C)c1nc(N[C@H]2CC[C@@H](CNC(=O)c3cccc(C(F)(F)F)c3F)CC2)nc2c1CCCC2` [compound 626], the class was 3 (Class 3 The value of percent of control at 10^−7 M was more than 60% or the value of IC50 was more than 200 nM.).
In the case of `CN(C)c1nc(N[C@H]2CC[C@@H](CNC(=O)c3cc(C(F)(F)F)ccc3F)CC2)nc2c1CCCC2` [compound 627], the class is reported as 3 (Class 3 The value of percent of control at 10^−7 M was more than 60% or the value of IC50 was more than 200 nM.).
For `COc1cccc(CC(=O)NC[C@H]2CC[C@@H](Nc3nc4c(c(N(C)C)n3)CCCC4)CC2)c1` [compound 629], the class was 3 (Class 3 The value of percent of control at 10^−7 M was more than 60% or the value of IC50 was more than 200 nM.).
In the case of `CN(C)c1nc(N[C@H]2CC[C@@H](CNC(=O)Cc3ccc(F)cc3)CC2)nc2c1CCCC2` [compound 630], the class is reported as 3 (Class 3 The value of percent of control at 10^−7 M was more than 60% or the value of IC50 was more than 200 nM.).
`COc1ccc(CC(=O)NC[C@H]2CC[C@@H](Nc3nc4c(c(N(C)C)n3)CCCC4)CC2)cc1` [compound 631] was tested, and the class was 1 (Class 1: The value of percent of control at 10^−7 M was less than 40% or the value of IC50 was less than 50 nM.).
For `Cc1cc(C(=O)NC[C@H]2CC[C@@H](Nc3nc4c(c(N(C)C)n3)CCCC4)CC2)c(C(F)(F)F)o1` [compound 632], the class was 1 (Class 1: The value of percent of control at 10^−7 M was less than 40% or the value of IC50 was less than 50 nM.).
For `Cc1cc(C(=O)NC[C@H]2CC[C@@H](Nc3nc4c(c(N(C)C)n3)CCCC4)CC2)c(C)o1` [compound 633], the class was 3 (Class 3 The value of percent of control at 10^−7 M was more than 60% or the value of IC50 was more than 200 nM.).
With `CCOc1ccccc1C(=O)NC[C@H]1CC[C@@H](Nc2nc3c(c(N(C)C)n2)CCCC3)CC1` [compound 634] the class was 3 (Class 3 The value of percent of control at 10^−7 M was more than 60% or the value of IC50 was more than 200 nM.).
With `CN(C)c1nc(N[C@H]2CC[C@@H](CNC(=O)c3ccc(F)c(Cl)c3)CC2)nc2c1CCCC2` [compound 635] the class was 3 (Class 3 The value of percent of control at 10^−7 M was more than 60% or the value of IC50 was more than 200 nM.).
`Cc1ccc(C(=O)NC[C@H]2CC[C@@H](Nc3nc4c(c(N(C)C)n3)CCCC4)CC2)cc1F` [compound 636] was tested, and the class was 3 (Class 3 The value of percent of control at 10^−7 M was more than 60% or the value of IC50 was more than 200 nM.).
With `CN(C)c1nc(N[C@H]2CC[C@@H](CNC(=O)CC3CCCC3)CC2)nc2c1CCCC2` [compound 637] the class was 3 (Class 3 The value of percent of control at 10^−7 M was more than 60% or the value of IC50 was more than 200 nM.).
For `COc1cc(OC)cc(C(=O)NC[C@H]2CC[C@@H](Nc3nc4c(c(N(C)C)n3)CCCC4)CC2)c1` [compound 638], the class was 3 (Class 3 The value of percent of control at 10^−7 M was more than 60% or the value of IC50 was more than 200 nM.).
`CN(C)c1nc(N[C@H]2CC[C@@H](CNC(=O)c3ccc(C#N)cc3)CC2)nc2c1CCCC2` [compound 639] was tested, and the class was 3 (Class 3 The value of percent of control at 10^−7 M was more than 60% or the value of IC50 was more than 200 nM.).
For `CN(C)c1nc(N[C@H]2CC[C@@H](CNC(=O)c3cc(C(F)(F)F)cc(C(F)(F)F)c3)CC2)nc2c1CCCC2` [compound 640], the class was 3 (Class 3 The value of percent of control at 10^−7 M was more than 60% or the value of IC50 was more than 200 nM.).
With `CN(C)c1nc(N[C@H]2CC[C@@H](CNC(=O)/C=C/c3ccc([N+](=O)[O-])cc3)CC2)nc2c1CCCC2` [compound 641] the class was 2 (Class 2: The value of percent of control at 10^−7 M was from 40% to 60% or the value of IC′50 was from 50 nM to 200 nM.).
For `CN(C)c1nc(N[C@H]2CC[C@@H](CNC(=O)Cc3ccccc3Br)CC2)nc2c1CCCC2` [compound 642], the class was 3 (Class 3 The value of percent of control at 10^−7 M was more than 60% or the value of IC50 was more than 200 nM.).
For `Cc1cc(C(=O)NC[C@H]2CC[C@@H](Nc3nc4c(c(N(C)C)n3)CCCC4)CC2)ccc1F` [compound 643], the class was 2 (Class 2: The value of percent of control at 10^−7 M was from 40% to 60% or the value of IC′50 was from 50 nM to 200 nM.).
`CN(C)c1nc(N[C@H]2CC[C@@H](CNC(=O)c3ccccc3SC(F)F)CC2)nc2c1CCCC2` [compound 644] was tested, and the class was 3 (Class 3 The value of percent of control at 10^−7 M was more than 60% or the value of IC50 was more than 200 nM.).
For `CN(C)c1nc(N[C@H]2CC[C@@H](CNC(=O)c3cc(Cl)sc3Cl)CC2)nc2c1CCCC2` [compound 645], the class was 3 (Class 3 The value of percent of control at 10^−7 M was more than 60% or the value of IC50 was more than 200 nM.).
In the case of `CCCSc1ncccc1C(=O)NC[C@H]1CC[C@@H](Nc2nc3c(c(N(C)C)n2)CCCC3)CC1` [compound 646], the class is reported as 1 (Class 1: The value of percent of control at 10^−7 M was less than 40% or the value of IC50 was less than 50 nM.).
With `CN(C)c1nc(N[C@H]2CC[C@@H](CNC(=O)c3cc(C(C)(C)C)nn3Cc3ccccc3)CC2)nc2c1CCCC2` [compound 647] the class was 3 (Class 3 The value of percent of control at 10^−7 M was more than 60% or the value of IC50 was more than 200 nM.).
For `CN(C)c1nc(N[C@H]2CC[C@@H](CNC(=O)c3cc(C(C)(C)C)nn3C)CC2)nc2c1CCCC2` [compound 648], the class was 3 (Class 3 The value of percent of control at 10^−7 M was more than 60% or the value of IC50 was more than 200 nM.).
With `C/C(=C\c1ccccc1)C(=O)NC[C@H]1CC[C@@H](Nc2nc3c(c(N(C)C)n2)CCCC3)CC1` [compound 649] the class was 3 (Class 3 The value of percent of control at 10^−7 M was more than 60% or the value of IC50 was more than 200 nM.).
With `CN(C)c1nc(N[C@H]2CC[C@@H](CNC(=O)c3cncc(Br)c3)CC2)nc2c1CCCC2` [compound 650] the class was 3 (Class 3 The value of percent of control at 10^−7 M was more than 60% or the value of IC50 was more than 200 nM.).
`CN(C)c1nc(N[C@H]2CC[C@@H](CNC(=O)Cc3cccc4ccccc34)CC2)nc2c1CCCC2` [compound 651] was tested, and the class was 3 (Class 3 The value of percent of control at 10^−7 M was more than 60% or the value of IC50 was more than 200 nM.).
In the case of `Cc1cc(C(=O)NC[C@H]2CC[C@@H](Nc3nc4c(c(N(C)C)n3)CCCC4)CC2)nn1C(C)(C)C` [compound 652], the class is reported as 3 (Class 3 The value of percent of control at 10^−7 M was more than 60% or the value of IC50 was more than 200 nM.).
`CN(C)c1nc(N[C@H]2CC[C@@H](CNC(=O)c3csc4ccccc34)CC2)nc2c1CCCC2` [compound 653] was tested, and the class was 3 (Class 3 The value of percent of control at 10^−7 M was more than 60% or the value of IC50 was more than 200 nM.).
In the case of `CN(C)c1nc(N[C@H]2CC[C@@H](CNC(=O)c3ccc(-c4ccccc4)cc3)CC2)nc2c1CCCC2` [compound 654], the class is reported as 3 (Class 3 The value of percent of control at 10^−7 M was more than 60% or the value of IC50 was more than 200 nM.).
`CN(C)c1nc(N[C@H]2CC[C@@H](CNC(=O)c3ccccc3Br)CC2)nc2c1CCCC2` [compound 655] was tested, and the class was 3 (Class 3 The value of percent of control at 10^−7 M was more than 60% or the value of IC50 was more than 200 nM.).
`CN(C)c1nc(N[C@H]2CC[C@@H](CNC(=O)c3c(Cl)cccc3Cl)CC2)nc2c1CCCC2` [compound 656, 2,6-dichloro-N-[(cis-4-{[4-(dimethylamino)-5,6,7,8-tetrahydroquinazolin-2-yl]amino}cyclohexyl)methyl]benzamide] was tested, and the class was 2 (Class 2: The value of percent of control at 10^−7 M was from 40% to 60% or the value of IC′50 was from 50 nM to 200 nM.).
In the case of `CN(C)c1nc(N[C@H]2CC[C@@H](CNC(=O)c3ccccc3I)CC2)nc2c1CCCC2` [compound 657], the class is reported as 3 (Class 3 The value of percent of control at 10^−7 M was more than 60% or the value of IC50 was more than 200 nM.).
With `Cc1ccccc1C(=O)NC[C@H]1CC[C@@H](Nc2nc3c(c(N(C)C)n2)CCCC3)CC1` [compound 658] the class was 3 (Class 3 The value of percent of control at 10^−7 M was more than 60% or the value of IC50 was more than 200 nM.).
In the case of `CN(C)c1nc(N[C@H]2CC[C@@H](CNC(=O)c3cccc(Cl)c3Cl)CC2)nc2c1CCCC2` [compound 659], the class is reported as 3 (Class 3 The value of percent of control at 10^−7 M was more than 60% or the value of IC50 was more than 200 nM.).
With `CN(C)c1nc(N[C@H]2CC[C@@H](CNC(=O)c3cc(F)ccc3Cl)CC2)nc2c1CCCC2` [compound 660] the class was 3 (Class 3 The value of percent of control at 10^−7 M was more than 60% or the value of IC50 was more than 200 nM.).
For `CN(C)c1nc(N[C@H]2CC[C@@H](CNC(=O)c3cccc4c3-c3ccccc3C4=O)CC2)nc2c1CCCC2` [compound 661], the class was 3 (Class 3 The value of percent of control at 10^−7 M was more than 60% or the value of IC50 was more than 200 nM.).
